Several values for one entry are separate records, joined by “and”; a condition that tells them apart may be missing. Equal entries are not always repeated.
Details: Liquid, Vibrating tube method

CCCCCC(=O)OCC(COC(=O)CCCCC)(COC(=O)CCCCC)COC(=O)CCCCC [pentaerythritol tetrahexanoate]
Details | mass density
323.14 K, 9872.1 kPa | 979.5 kg/m3
323.14 K, 9877.7 kPa | 979.4 kg/m3
323.14 K, 9882.8 kPa | 979.5 kg/m3
323.14 K, 9890.7 kPa | 979.4 kg/m3
323.14 K, 10279 kPa | 979.8 kg/m3
323.14 K, 10299 kPa | 979.7 kg/m3
323.14 K, 10325 kPa | 979.8 kg/m3
323.14 K, 10354 kPa | 979.8 kg/m3
323.14 K, 10377 kPa | 979.8 kg/m3
323.14 K, 10409 kPa | 979.8 kg/m3
323.14 K, 10437 kPa | 979.7 kg/m3
323.14 K, 10641 kPa | 980 kg/m3
323.14 K, 10798 kPa | 980.1 kg/m3
323.14 K, 10825 kPa | 980 kg/m3
323.14 K, 10850 kPa | 980 kg/m3
323.14 K, 10879 kPa | 980.1 kg/m3
323.14 K, 10908 kPa | 980.2 kg/m3
323.14 K, 10930 kPa | 980.1 kg/m3
323.14 K, 11644 kPa | 980.6 kg/m3
323.14 K, 11671 kPa | 980.7 kg/m3
323.14 K, 11694 kPa | 980.7 kg/m3
323.14 K, 11721 kPa | 980.6 kg/m3
323.14 K, 11748 kPa | 980.6 kg/m3
323.14 K, 11771 kPa | 980.7 kg/m3
323.14 K, 11798 kPa | 980.7 kg/m3
323.14 K, 11821 kPa | 980.9 kg/m3
323.14 K, 11872 kPa | 980.8 kg/m3
323.14 K, 13057 kPa | 981.6 kg/m3
323.14 K, 13085 kPa | 981.6 kg/m3
323.14 K, 13108 kPa | 981.6 kg/m3
323.14 K, 13136 kPa | 981.6 kg/m3
323.14 K, 13163 kPa | 981.7 kg/m3
323.14 K, 13448 kPa | 981.9 kg/m3
323.14 K, 13476 kPa | 981.9 kg/m3
323.14 K, 13500 kPa | 982 kg/m3
323.14 K, 13529 kPa | 981.8 kg/m3
323.14 K, 13553 kPa | 981.9 kg/m3
323.14 K, 13581 kPa | 982 kg/m3
323.14 K, 13609 kPa | 981.9 kg/m3
323.14 K, 13633 kPa | 982 kg/m3
323.14 K, 13661 kPa | 982 kg/m3
323.14 K, 13684 kPa | 982 kg/m3
323.14 K, 13711 kPa | 982.1 kg/m3
323.14 K, 13739 kPa | 982.1 kg/m3
323.14 K, 13763 kPa | 982 kg/m3
323.14 K, 13791 kPa | 982.1 kg/m3
323.14 K, 13814 kPa | 982 kg/m3
323.14 K, 13841 kPa | 982.2 kg/m3
323.14 K, 13868 kPa | 982.2 kg/m3
323.14 K, 14047 kPa | 982.2 kg/m3
323.14 K, 14070 kPa | 982.3 kg/m3
323.14 K, 14098 kPa | 982.2 kg/m3
323.14 K, 14122 kPa | 982.3 kg/m3
323.14 K, 14149 kPa | 982.4 kg/m3
323.14 K, 14177 kPa | 982.3 kg/m3
323.14 K, 14200 kPa | 982.3 kg/m3
323.14 K, 14229 kPa | 982.4 kg/m3
323.14 K, 14257 kPa | 982.3 kg/m3
323.14 K, 14281 kPa | 982.5 kg/m3
323.14 K, 14309 kPa | 982.5 kg/m3
323.14 K, 14333 kPa | 982.4 kg/m3
323.14 K, 14362 kPa | 982.5 kg/m3
323.14 K, 14385 kPa | 982.3 kg/m3
323.14 K, 14412 kPa | 982.5 kg/m3
323.14 K, 14435 kPa | 982.6 kg/m3
323.14 K, 14462 kPa | 982.5 kg/m3
323.14 K, 14491 kPa | 982.5 kg/m3
323.14 K, 14542 kPa | 982.6 kg/m3
323.14 K, 14860 kPa | 982.8 kg/m3
323.14 K, 14888 kPa | 982.8 kg/m3
323.14 K, 14912 kPa | 982.7 kg/m3
323.14 K, 14941 kPa | 982.8 kg/m3
323.14 K, 14965 kPa | 982.8 kg/m3
323.14 K, 14994 kPa | 982.8 kg/m3
323.14 K, 15019 kPa | 982.8 kg/m3
323.14 K, 15047 kPa | 982.8 kg/m3
323.14 K, 15070 kPa | 982.8 kg/m3
323.14 K, 15098 kPa | 983 kg/m3
323.14 K, 15126 kPa | 982.9 kg/m3
323.14 K, 15150 kPa | 982.9 kg/m3
323.14 K, 15177 kPa | 983.1 kg/m3
323.14 K, 15205 kPa | 983 kg/m3
323.14 K, 15229 kPa | 983 kg/m3
323.14 K, 32387 kPa | 993.4 kg/m3
323.14 K, 32388 kPa | 993.7 kg/m3 and 993.6 kg/m3 and 993.5 kg/m3
323.14 K, 32389 kPa | 993.5 kg/m3 and 993.6 kg/m3
323.14 K, 32390 kPa | 993.5 kg/m3 and 993.6 kg/m3
323.14 K, 32391 kPa | 993.5 kg/m3
323.14 K, 32392 kPa | 993.6 kg/m3
323.14 K, 32393 kPa | 993.5 kg/m3
323.14 K, 32394 kPa | 993.5 kg/m3
323.14 K, 32395 kPa | 993.5 kg/m3
323.14 K, 32396 kPa | 993.5 kg/m3 and 993.6 kg/m3
323.14 K, 32398 kPa | 993.5 kg/m3
323.14 K, 32399 kPa | 993.5 kg/m3
323.14 K, 32400 kPa | 993.6 kg/m3
323.14 K, 32401 kPa | 993.6 kg/m3
323.14 K, 32402 kPa | 993.4 kg/m3
323.14 K, 32403 kPa | 993.5 kg/m3
323.14 K, 32404 kPa | 993.5 kg/m3
323.15 K, 370.6 kPa | 972.9 kg/m3
323.15 K, 372.9 kPa | 972.9 kg/m3
323.15 K, 374.8 kPa | 973 kg/m3
323.15 K, 377 kPa | 972.9 kg/m3
323.15 K, 379.5 kPa | 972.9 kg/m3
323.15 K, 381.7 kPa | 973 kg/m3
323.15 K, 444.1 kPa | 973 kg/m3
323.15 K, 447.6 kPa | 973 kg/m3
323.15 K, 450.5 kPa | 973 kg/m3
323.15 K, 453.3 kPa | 973 kg/m3
323.15 K, 456.4 kPa | 973.1 kg/m3
323.15 K, 460.3 kPa | 973 kg/m3
323.15 K, 463.4 kPa | 973 kg/m3
323.15 K, 466.7 kPa | 973 kg/m3
323.15 K, 470.7 kPa | 973 kg/m3
323.15 K, 473.8 kPa | 972.9 kg/m3
323.15 K, 520.2 kPa | 973 kg/m3
323.15 K, 524.4 kPa | 973.1 kg/m3
323.15 K, 528.6 kPa | 973.1 kg/m3
323.15 K, 532.7 kPa | 973 kg/m3
323.15 K, 536.7 kPa | 973 kg/m3
323.15 K, 542.1 kPa | 973 kg/m3
323.15 K, 546.3 kPa | 972.9 kg/m3
323.15 K, 551.3 kPa | 973.1 kg/m3
323.15 K, 555.7 kPa | 973.2 kg/m3
323.15 K, 560.2 kPa | 973.1 kg/m3
323.15 K, 564.7 kPa | 973 kg/m3
323.15 K, 567.1 kPa | 973 kg/m3
323.15 K, 567.3 kPa | 973.1 kg/m3
323.15 K, 568.2 kPa | 973 kg/m3
323.15 K, 569.7 kPa | 973.1 kg/m3
323.15 K, 571.8 kPa | 973.1 kg/m3
323.15 K, 573.7 kPa | 973.1 kg/m3
323.15 K, 575.6 kPa | 973.1 kg/m3
323.15 K, 592.7 kPa | 973.1 kg/m3
323.15 K, 594.8 kPa | 973.2 kg/m3
323.15 K, 596.6 kPa | 973.1 kg/m3
323.15 K, 598.6 kPa | 973.1 kg/m3
323.15 K, 601.2 kPa | 973 kg/m3
323.15 K, 603.4 kPa | 973 kg/m3
323.15 K, 605.2 kPa | 973.1 kg/m3
323.15 K, 607.4 kPa | 973.1 kg/m3
323.15 K, 609.9 kPa | 973 kg/m3
323.15 K, 612 kPa | 973.1 kg/m3
323.15 K, 614 kPa | 973.1 kg/m3
